In publication PMC4321555, “Differential inhibition of Arabidopsis superoxide dismutases by peroxynitrite-mediated tyrosine nitration” (Journal of Experimental Botany, 2014):
Where a chain is given by its changes, count along the chain named.

Assays:
Format in all cases: biochemical
[1] = target: T1, CSD3 (Cu/ZnSOD3; peroxisomal copper/zinc SOD3) (Arabidopsis thaliana, UniProt Q9FK60); test: SOD activity after peroxynitrite treatment (cytochrome c reduction); conditions: covalent (tyrosine nitration, Tyr115); 20 min, RT, dark; potassium phosphate pH 8.0
T1 sequence (Q9FK60 1-164): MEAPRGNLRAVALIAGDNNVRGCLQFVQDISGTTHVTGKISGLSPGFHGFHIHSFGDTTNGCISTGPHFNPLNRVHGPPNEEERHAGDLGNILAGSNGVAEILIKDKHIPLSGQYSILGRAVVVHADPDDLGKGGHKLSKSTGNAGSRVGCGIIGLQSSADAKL

[2] = target: T2, MSD1 (MnSOD; manganese SOD1) (Arabidopsis thaliana, UniProt O81235, Y63F); test: SOD activity after peroxynitrite treatment; conditions: covalent (tyrosine nitration); 20 min, RT, dark; potassium phosphate pH 8.0
T2 sequence (O81235 1-231 Y63F): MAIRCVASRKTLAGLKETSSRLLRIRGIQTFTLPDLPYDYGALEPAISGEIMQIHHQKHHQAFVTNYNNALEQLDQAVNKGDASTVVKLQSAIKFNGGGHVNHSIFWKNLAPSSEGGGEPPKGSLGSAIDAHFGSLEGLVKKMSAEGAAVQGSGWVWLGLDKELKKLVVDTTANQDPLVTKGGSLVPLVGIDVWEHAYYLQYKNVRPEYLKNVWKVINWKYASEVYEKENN

[3] = target: T3, FSD3 (FeSOD3; chloroplastic iron SOD3) (Arabidopsis thaliana, UniProt Q9FMX0); test: SOD activity after peroxynitrite treatment (cytochrome c reduction); conditions: covalent (tyrosine nitration); 20 min, RT, dark; potassium phosphate pH 8.0
T3 sequence (Q9FMX0 1-263 limits assumed): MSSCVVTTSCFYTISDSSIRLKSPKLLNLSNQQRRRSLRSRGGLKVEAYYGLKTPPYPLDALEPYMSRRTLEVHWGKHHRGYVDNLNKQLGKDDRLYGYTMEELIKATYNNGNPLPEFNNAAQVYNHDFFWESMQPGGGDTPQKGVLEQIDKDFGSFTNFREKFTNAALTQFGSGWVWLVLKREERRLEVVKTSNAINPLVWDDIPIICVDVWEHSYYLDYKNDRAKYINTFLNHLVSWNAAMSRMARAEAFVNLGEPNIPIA

[4] = target: T4, MSD1 (MnSOD; manganese SOD1) (Arabidopsis thaliana, UniProt O81235); test: as above; conditions: covalent (tyrosine nitration, mainly Tyr63); 20 min, RT, dark; potassium phosphate pH 8.0
T4 sequence (O81235 1-231): T2 sequence (O81235 1-231 Y63F) with F63Y

CSD2 (Cu/ZnSOD2) = target: T5, CSD2 (Cu/ZnSOD2) (Arabidopsis thaliana, UniProt O78310); test: NBT-formazan SOD assay (xanthine/xanthine oxidase); conditions: superoxide generated by xanthine oxidase; 570 nm
T5 sequence (O78310 1-216 limits assumed): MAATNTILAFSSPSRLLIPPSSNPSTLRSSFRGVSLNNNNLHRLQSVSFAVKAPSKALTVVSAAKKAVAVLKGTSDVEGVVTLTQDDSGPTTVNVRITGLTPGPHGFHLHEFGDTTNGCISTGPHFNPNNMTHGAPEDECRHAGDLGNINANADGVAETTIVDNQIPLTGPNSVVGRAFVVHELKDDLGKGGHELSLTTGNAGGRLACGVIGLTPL

FSD2 = target: T6, FSD2 (Arabidopsis thaliana, UniProt Q9LU64); test: NBT-formazan SOD assay (xanthine/xanthine oxidase); conditions: superoxide generated by xanthine oxidase; 570 nm
T6 sequence (Q9LU64 1-305 limits assumed): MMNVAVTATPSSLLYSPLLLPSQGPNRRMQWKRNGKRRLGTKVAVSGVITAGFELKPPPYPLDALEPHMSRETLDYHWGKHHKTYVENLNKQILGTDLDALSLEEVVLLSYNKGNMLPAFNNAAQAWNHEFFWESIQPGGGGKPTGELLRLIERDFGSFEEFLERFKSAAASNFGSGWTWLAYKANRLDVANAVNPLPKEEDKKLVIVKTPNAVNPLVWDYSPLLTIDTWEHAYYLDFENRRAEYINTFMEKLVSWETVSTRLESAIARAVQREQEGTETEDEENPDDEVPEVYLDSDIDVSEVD

[5] = target: T1, CSD3 (Cu/ZnSOD3; peroxisomal copper/zinc SOD3); test: NBT-formazan SOD assay (xanthine/xanthine oxidase); conditions: superoxide generated by xanthine oxidase; 570 nm
[6] = target: T4, MSD1 (MnSOD; manganese SOD1); test: NBT-formazan SOD assay (xanthine/xanthine oxidase); conditions: superoxide generated by xanthine oxidase; 570 nm
FSD1 = target: T7, FSD1 (Arabidopsis thaliana, UniProt P21276); test: NBT-formazan SOD assay (xanthine/xanthine oxidase); conditions: superoxide generated by xanthine oxidase; 570 nm
T7 sequence (P21276 1-212): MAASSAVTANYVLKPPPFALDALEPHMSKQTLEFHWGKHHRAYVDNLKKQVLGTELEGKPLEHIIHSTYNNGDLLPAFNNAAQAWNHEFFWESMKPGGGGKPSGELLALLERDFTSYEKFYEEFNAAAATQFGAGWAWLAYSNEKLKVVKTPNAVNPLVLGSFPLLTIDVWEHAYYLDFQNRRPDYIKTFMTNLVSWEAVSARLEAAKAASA

[7] = target: T3, FSD3 (FeSOD3; chloroplastic iron SOD3); test: NBT-formazan SOD assay (xanthine/xanthine oxidase); conditions: superoxide generated by xanthine oxidase; 570 nm
CSD1 (Cu/ZnSOD1) = target: T8, CSD1 (Cu/ZnSOD1) (Arabidopsis thaliana, UniProt P24704); test: NBT-formazan SOD assay (xanthine/xanthine oxidase); conditions: superoxide generated by xanthine oxidase; 570 nm
T8 sequence (P24704 1-152): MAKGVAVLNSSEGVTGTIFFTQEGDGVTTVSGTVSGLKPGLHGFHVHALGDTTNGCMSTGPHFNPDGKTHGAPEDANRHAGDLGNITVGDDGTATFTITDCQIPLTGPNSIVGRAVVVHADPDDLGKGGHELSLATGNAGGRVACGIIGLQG

## O=NOO [peroxynitrite]
[1]
  % remaining activity at 500 μM: 65%
[2]
  % inhibition at 500 μM: 30%
[3]
  % remaining activity at 500 μM: 65%
[4]
  % inhibition at 500 μM: ~ 90%

## [O]O [superoxide]
CSD2 (Cu/ZnSOD2)
  NBT-formazan SOD assay (xanthine/xanthine oxidase): The activity of the purified, recombinant SODs was determined using the nitroblue tetrazolium (NBT)–formazan method
FSD2
  NBT-formazan SOD assay (xanthine/xanthine oxidase): The activity of the purified, recombinant SODs was determined using the nitroblue tetrazolium (NBT)–formazan method
[5]
  NBT-formazan SOD assay (xanthine/xanthine oxidase): The activity of the purified, recombinant SODs was determined using the nitroblue tetrazolium (NBT)–formazan method
[6]
  NBT-formazan SOD assay (xanthine/xanthine oxidase): The activity of the purified, recombinant SODs was determined using the nitroblue tetrazolium (NBT)–formazan method
FSD1
  NBT-formazan SOD assay (xanthine/xanthine oxidase): The activity of the purified, recombinant SODs was determined using the nitroblue tetrazolium (NBT)–formazan method
[7]
  NBT-formazan SOD assay (xanthine/xanthine oxidase): The activity of the purified, recombinant SODs was determined using the nitroblue tetrazolium (NBT)–formazan method
CSD1 (Cu/ZnSOD1)
  NBT-formazan SOD assay (xanthine/xanthine oxidase): The activity of the purified, recombinant SODs was determined using the nitroblue tetrazolium (NBT)–formazan method
